Results reported in ChEMBL document CHEMBL3886225, “Morpholinylquinazolines” (2015).

Molecular target: DNA-dependent protein kinase catalytic subunit (Homo sapiens, UniProt P78527)
Test: Biochemical Assay: The kinase assay was carried out in streptavidin-coated […] microtitre FlashPlates®. To this end, 1.5 μg of the DNA-PK/protein complex and 100 ng of biotinylated substrate, such as, for example, PESQEAFADLWKK biotin-NH2 (biotin-DNA-PK peptide), in a total volume of 36.5 μl (34.25 mM HEPES/KOH, 7.85 mM Tris-HCl, 68.5 mM KCl, 5 μM ATP, 6.85 mM MgCl2, 0.5 mM EDTA, 0.14 mM EGTA, 0.69 mM DTT, pH 7.4), were incubated at room temperature for 90 min with 500 ng of DNA from calf thymus, 0.1 μCi of 33P-ATP and 1.8% of DMSO per well with or without the test compound. The reaction was stopped using 50 μl/well of 200 mM EDTA. After incubation for a further 30 min at room temperature, the liquid was removed. Each well was washed three times with 100 μl of 0.9% sodium chloride solution. A non-specific reaction (blank value) was determined using 10 μM of a proprietary kinase inhibitor.

Chain of DNA-dependent protein kinase catalytic subunit (P78527 whole entry): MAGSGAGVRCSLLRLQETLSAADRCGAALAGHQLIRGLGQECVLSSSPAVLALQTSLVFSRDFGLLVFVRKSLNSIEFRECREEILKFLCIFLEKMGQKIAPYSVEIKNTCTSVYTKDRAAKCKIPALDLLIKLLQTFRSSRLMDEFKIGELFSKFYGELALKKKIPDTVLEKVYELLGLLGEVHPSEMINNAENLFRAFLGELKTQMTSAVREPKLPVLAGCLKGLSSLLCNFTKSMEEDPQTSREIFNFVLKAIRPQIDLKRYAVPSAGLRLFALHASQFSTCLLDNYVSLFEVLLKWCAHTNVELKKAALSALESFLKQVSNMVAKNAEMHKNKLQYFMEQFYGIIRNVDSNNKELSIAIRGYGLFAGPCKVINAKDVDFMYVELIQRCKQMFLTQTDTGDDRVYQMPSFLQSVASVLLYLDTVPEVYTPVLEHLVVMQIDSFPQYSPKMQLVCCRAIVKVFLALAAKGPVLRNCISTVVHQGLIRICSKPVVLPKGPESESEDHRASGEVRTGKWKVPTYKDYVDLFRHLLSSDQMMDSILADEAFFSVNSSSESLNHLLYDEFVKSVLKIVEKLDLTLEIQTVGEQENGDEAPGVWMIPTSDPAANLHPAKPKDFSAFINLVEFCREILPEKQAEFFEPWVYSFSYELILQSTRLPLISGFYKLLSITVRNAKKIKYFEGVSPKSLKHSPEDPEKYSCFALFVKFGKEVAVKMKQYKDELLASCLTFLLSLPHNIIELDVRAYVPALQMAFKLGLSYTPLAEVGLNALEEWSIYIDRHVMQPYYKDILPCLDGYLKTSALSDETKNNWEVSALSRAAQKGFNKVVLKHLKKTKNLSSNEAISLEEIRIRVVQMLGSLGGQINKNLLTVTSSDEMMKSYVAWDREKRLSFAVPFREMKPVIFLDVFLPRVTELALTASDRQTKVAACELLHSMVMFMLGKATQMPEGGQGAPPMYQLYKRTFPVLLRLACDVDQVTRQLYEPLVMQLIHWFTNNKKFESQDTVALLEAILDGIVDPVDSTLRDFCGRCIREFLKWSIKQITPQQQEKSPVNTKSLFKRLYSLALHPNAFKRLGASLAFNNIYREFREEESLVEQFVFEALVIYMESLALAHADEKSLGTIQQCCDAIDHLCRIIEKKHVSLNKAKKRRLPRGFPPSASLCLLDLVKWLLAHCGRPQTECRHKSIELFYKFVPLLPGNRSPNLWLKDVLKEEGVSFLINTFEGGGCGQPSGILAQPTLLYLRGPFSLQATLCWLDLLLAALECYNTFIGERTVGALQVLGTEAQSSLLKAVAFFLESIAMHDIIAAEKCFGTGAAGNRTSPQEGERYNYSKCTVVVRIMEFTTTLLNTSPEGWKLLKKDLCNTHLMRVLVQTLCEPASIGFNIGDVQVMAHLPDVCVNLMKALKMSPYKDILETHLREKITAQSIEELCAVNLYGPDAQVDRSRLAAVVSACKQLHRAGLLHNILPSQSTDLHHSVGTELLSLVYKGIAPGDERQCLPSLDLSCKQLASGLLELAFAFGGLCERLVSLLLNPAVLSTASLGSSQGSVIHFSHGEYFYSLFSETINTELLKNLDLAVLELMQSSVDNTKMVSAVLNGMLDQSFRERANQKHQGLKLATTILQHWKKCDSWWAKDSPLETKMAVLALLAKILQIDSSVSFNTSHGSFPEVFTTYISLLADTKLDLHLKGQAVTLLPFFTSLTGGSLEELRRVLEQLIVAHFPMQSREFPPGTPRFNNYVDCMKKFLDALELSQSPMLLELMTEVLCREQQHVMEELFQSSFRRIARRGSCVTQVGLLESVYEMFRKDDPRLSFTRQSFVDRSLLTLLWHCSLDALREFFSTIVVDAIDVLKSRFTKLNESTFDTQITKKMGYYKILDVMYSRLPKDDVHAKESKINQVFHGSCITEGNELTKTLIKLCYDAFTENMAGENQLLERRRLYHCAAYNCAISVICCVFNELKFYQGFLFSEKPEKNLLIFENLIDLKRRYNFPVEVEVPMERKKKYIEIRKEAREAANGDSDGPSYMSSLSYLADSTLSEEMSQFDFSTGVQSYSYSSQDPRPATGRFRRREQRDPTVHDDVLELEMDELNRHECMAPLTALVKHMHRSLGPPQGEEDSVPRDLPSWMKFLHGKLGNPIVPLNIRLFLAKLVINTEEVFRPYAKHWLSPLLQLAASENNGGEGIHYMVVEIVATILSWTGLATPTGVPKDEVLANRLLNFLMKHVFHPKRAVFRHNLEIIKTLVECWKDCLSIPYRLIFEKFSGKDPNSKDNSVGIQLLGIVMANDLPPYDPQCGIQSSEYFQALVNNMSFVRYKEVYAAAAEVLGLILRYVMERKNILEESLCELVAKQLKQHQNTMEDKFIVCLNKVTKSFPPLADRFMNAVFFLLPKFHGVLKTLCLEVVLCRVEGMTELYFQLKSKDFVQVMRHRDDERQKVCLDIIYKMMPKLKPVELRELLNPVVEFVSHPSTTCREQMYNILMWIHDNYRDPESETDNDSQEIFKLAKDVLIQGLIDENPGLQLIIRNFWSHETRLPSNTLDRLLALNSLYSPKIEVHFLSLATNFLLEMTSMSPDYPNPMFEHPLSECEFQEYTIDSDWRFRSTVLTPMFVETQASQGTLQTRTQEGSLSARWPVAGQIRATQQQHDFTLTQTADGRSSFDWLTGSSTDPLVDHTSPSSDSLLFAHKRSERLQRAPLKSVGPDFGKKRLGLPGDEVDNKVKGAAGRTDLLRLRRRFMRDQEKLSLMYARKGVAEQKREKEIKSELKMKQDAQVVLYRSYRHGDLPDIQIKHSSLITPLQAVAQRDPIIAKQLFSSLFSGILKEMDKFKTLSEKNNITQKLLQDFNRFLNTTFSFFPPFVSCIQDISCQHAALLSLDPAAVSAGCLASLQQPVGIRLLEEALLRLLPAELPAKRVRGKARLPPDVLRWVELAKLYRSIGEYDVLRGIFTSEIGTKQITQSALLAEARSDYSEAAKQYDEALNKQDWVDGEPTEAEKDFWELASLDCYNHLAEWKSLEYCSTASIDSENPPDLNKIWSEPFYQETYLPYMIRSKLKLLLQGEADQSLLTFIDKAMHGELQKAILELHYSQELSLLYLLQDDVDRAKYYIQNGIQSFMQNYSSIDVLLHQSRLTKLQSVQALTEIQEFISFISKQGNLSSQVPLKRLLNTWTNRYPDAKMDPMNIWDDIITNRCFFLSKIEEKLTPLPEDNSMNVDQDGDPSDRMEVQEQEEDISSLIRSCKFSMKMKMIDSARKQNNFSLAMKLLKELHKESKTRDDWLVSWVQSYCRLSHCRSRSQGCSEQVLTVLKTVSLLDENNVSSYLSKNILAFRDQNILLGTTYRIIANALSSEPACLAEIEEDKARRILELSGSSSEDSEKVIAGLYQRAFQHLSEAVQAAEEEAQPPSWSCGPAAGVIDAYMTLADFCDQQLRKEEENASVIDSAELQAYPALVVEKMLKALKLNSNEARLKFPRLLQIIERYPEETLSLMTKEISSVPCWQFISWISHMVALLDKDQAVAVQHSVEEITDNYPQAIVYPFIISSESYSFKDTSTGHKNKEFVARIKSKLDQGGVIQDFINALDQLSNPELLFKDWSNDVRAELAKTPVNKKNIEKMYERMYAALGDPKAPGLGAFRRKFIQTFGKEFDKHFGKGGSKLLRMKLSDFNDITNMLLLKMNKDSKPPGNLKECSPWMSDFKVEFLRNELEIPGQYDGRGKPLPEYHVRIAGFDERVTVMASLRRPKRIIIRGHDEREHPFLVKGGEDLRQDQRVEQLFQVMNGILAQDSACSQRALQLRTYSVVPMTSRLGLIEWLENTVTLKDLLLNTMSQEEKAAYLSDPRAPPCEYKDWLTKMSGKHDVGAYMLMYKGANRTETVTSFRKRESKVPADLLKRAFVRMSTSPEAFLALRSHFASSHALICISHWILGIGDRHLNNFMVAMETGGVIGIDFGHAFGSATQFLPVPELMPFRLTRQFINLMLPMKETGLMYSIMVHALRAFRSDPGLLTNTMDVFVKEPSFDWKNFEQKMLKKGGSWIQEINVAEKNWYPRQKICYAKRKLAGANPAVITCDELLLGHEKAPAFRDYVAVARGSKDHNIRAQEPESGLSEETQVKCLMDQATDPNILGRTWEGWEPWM

Compound `O=S(=O)(NC1CCCN(c2nc(Cl)nc3cc(N4CCOCC4)ccc23)C1)c1cccs1` (stereo unspecified) has an IC50 of under 100 nM.
